Reference: US20100273700A1, “USE OF A PEPTIDE AS A THERAPEUTIC AGENT” (priority 2007, published 2010)

Test system: drug-resistant Mycobacterium tuberculosis
Conditions: 5 micrograms per ml

CC(C)C[C@H](NC(=O)[C@H](Cc1ccccc1)NC(=O)CNC(=O)CNC(=O)[C@@H](N)Cc1ccc(O)cc1)C(=O)N[C@@H](CCCNC(=N)N)C(=O)N[C@@H](CCCNC(=N)N)C(=O)N[C@@H](CCC(N)=O)C(=O)N[C@@H](Cc1ccccc1)C(=O)N[C@@H](CCCCN)C(=O)N[C@H](C(=O)N[C@H](C(=O)N[C@H](C(=O)O)[C@@H](C)O)C(C)C)C(C)C [Dynorphin B]
% inhibition: 0.0%
